The values that follow come from ChEMBL document CHEMBL6121021, “Design and Synthesis of Topoisomerases-Histone Deacetylase Dual Targeted Quinoline-Bridged Hydroxamates as Anticancer Agents” (J Med Chem, 2025).

The IC50 is the midpoint of a concentration-inhibition curve. High values mean weaker potency in that assay, low ones greater potency in that assay.

Active and inactive are the calls of the source. No cut-off for these calls is given here. A value given as a limit tells only on which side of the number the result lay.

The test system of assay [1] is A549. Description: cells. The note with it: Homo sapiens, A549, 48 h.
Assay [2] concerns A549. The experiment in a line: Induction of ROS generation in human A549 cells incubated for 48 hrs by Cell Rox red staining based flow cytometry. In kind it is functional.
In assay [3] the test system is A549. Description: Anti-cancer activity against human A549 3D cell culture model assessed as inhibition of 3D culture initiation at sub- IC50 incubated for 21 days with replacement of medium containing compound on every seventh day. The note with it: time 21.0 day. It is filed as functional, cell-based.
Assay [4] has as its target Histone deacetylase 1 (Homo sapiens, UniProt Q13547). The experiment in a line: Inhibition of HDAC1 extracted from human A549 nucleus incubated for 1 hr by fluorometric assay. In kind it is cell-free.
The test system of assay [5] is MDA-MB-231. The experiment in a line: Anti-cancer activity against human MDA-MB-231 cells assessed as increase in let7a mRNA level by qPCR analysis. In kind it is functional, cell-based. (In general: Real-time PCR tracks product formation cycle by cycle.)
The test system of assay [6] is Supercoiled DNA. Description: Binding affinity to supercoiled DNA (unknown origin) assessed as DNA intercalation measured after 30 mins by gel electrophoresis. In kind it is nucleic-acid assay.
In assay [7] the target is T1, DNA topoisomerase 1 (Homo sapiens) (UniProt P11387).
T1 sequence (whole entry): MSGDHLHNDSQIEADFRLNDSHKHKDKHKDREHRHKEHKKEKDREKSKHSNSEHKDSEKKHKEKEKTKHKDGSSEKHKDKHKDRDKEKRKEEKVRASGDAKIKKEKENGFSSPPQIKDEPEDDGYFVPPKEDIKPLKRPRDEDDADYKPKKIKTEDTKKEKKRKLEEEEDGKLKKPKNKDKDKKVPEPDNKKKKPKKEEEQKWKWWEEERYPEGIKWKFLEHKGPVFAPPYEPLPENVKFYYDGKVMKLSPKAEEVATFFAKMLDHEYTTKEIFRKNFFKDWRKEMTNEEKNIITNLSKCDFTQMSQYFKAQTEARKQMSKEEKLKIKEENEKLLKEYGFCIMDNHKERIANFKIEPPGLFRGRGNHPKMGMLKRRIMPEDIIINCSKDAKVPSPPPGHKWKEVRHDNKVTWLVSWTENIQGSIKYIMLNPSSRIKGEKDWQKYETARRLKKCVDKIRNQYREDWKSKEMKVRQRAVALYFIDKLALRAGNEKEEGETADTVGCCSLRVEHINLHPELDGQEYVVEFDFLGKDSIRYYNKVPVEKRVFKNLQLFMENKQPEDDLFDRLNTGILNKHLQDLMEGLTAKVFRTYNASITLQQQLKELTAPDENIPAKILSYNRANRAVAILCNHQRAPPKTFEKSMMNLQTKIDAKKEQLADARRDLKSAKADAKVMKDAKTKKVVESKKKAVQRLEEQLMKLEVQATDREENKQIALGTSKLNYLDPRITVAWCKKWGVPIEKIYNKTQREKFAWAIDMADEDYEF
Description: Inhibition of human Topo I-mediated relaxation of supercoiled DNA preincubated for 30 mins followed by proteinase K addition measured after 30 mins by gel electrophoresis. The note with it: time 60.0 min.

Assay [8] deals with MCF7. Description: cells. In kind it is functional, cell-based. Particulars: Homo sapiens, MCF7, 48 h.
For assay [9], the system named is A549. Description: Effect on mitochondrial membrane permeability in human A549 cells assessed as decrease in red to green fluorescence ratio at sub-IC50 incubated for 48 hrs by JC-1 staining based analysis. In kind it is functional, cell-based.
Assay [10] has as its system A549. The experiment in a line: Induction of ROS generation in human A549 cells incubated for 48 hrs by DCFH-DA staining based analysis. It is filed as functional, cell-based.
Assay [11] has as its target DNA topoisomerase 2-alpha (Homo sapiens, UniProt P11388). Description: Inhibition of human Topo II-alpha-mediated decatenation of kDNA at 100 uM incubated for 30 mins.
Assay [12] relates to HT-29. Description: cells. In kind it is functional, cell-based. The note with it: Homo sapiens, HT-29, 48 h.
For assay [13], the system named is NCI-H1299. The experiment in a line: cells. It is filed as functional, cell-based. The note with it: Homo sapiens, NCI-H1299, 48 h.
The target of assay [14] is T2, Histone deacetylase 8 (Homo sapiens, UniProt Q9BY41).
T2 sequence (Q9BY41 whole entry): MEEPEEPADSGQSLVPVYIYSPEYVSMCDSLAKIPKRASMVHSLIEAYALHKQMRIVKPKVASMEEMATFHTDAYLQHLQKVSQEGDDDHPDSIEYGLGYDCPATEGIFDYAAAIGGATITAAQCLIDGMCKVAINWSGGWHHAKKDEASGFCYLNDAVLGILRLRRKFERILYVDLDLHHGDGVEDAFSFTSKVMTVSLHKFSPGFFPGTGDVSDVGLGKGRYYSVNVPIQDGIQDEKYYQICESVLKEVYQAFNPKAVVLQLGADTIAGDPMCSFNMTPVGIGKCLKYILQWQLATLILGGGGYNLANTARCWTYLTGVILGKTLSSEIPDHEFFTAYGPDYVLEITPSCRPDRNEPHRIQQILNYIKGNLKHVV
The experiment in a line: Inhibition of HDAC8 (unknown origin) by fluorometric assay.

The test system of assay [15] is MDA-MB-231. Description: cells. In kind it is functional, cell-based. The note with it: Homo sapiens, MDA-MB-231, 48 h.
Assay [16] concerns A549. The experiment in a line: Anti-cancer activity against human A549 3D cell culture model at sub- IC50 incubated for 17 days with replacement of medium containing compound on every third day. In kind it is functional, cell-based. Particulars: time 17.0 day.

Sequence of DNA topoisomerase 2-alpha (P11388 whole entry): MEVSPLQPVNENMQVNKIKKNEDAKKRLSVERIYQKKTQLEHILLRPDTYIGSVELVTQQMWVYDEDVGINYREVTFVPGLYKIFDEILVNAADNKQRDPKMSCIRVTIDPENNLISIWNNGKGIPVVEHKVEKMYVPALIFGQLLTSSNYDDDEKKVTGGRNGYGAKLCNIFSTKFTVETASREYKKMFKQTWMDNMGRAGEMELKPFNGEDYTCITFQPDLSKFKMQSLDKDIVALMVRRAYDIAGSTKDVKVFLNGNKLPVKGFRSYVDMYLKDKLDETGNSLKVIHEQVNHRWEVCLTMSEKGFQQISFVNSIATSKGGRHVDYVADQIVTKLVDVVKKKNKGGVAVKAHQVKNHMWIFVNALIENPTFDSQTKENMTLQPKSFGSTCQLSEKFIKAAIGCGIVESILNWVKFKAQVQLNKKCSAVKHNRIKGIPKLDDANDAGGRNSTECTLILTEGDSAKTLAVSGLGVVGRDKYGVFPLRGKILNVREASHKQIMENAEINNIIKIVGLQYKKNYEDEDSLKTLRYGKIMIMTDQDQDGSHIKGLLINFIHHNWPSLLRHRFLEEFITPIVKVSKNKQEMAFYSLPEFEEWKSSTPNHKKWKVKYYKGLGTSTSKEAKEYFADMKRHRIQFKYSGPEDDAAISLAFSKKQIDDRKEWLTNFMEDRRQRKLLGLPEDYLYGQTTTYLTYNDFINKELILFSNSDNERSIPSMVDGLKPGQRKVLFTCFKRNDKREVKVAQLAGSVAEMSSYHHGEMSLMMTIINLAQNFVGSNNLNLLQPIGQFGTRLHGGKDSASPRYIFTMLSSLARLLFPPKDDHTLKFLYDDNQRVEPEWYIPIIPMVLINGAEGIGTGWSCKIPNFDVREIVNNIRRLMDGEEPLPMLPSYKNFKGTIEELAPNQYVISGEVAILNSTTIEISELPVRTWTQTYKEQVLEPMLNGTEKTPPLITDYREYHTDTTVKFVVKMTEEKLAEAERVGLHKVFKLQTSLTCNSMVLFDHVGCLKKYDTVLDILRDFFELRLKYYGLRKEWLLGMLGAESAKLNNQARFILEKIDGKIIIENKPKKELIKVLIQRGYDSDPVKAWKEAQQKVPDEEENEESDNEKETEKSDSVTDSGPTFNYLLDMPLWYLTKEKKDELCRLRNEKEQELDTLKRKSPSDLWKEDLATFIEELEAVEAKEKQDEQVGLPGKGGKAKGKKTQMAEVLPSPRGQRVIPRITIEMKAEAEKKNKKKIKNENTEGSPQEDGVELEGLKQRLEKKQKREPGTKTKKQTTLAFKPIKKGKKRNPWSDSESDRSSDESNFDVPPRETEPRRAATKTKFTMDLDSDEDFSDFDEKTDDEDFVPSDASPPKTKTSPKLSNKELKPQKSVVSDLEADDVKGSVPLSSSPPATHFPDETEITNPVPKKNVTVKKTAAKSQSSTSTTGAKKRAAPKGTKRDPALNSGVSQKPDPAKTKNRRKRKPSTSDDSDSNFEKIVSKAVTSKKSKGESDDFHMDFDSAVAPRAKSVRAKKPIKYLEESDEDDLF
Sequence of Histone deacetylase 1 (Q13547 whole entry): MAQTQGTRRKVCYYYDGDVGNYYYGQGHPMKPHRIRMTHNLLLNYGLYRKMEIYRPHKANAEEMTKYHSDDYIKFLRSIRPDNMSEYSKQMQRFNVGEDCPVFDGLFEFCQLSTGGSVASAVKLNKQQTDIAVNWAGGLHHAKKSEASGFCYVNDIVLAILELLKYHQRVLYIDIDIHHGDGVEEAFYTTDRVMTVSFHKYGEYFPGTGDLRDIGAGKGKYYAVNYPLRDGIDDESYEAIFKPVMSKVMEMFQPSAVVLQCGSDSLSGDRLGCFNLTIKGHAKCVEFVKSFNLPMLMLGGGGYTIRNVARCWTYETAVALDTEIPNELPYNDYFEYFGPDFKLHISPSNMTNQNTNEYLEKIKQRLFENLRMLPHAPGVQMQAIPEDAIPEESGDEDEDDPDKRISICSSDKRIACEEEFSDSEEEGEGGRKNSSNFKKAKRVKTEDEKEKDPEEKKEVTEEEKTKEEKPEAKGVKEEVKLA

`COc1ccc(-c2ccc3ccc(OCCCCCCC(=O)NO)cc3n2)cc1I`: the IC50 is 1970 nM in assay [1]; 36.2 nM in assay [4]; 3020 nM in assay [8]; 1860 nM in assay [12]; 1630 nM in assay [13]; greater than 500 nM in assay [14]. The IC50 in [15] amounted to 1550 nM. The result in assay [2], in assay [5] and in assay [10] was Active. For the same compound, the inhibition entry in assay [3] and in [7] was “Active” in each case. Moreover, in assay [6], the result was inactive. Further, the Activity entry in assay [9] was “Not active; Result Signifies That Cell Death Induced Via Mitochondrial-Independent Pathways”; in assay [16], “Active; Exhibited Potent Effect”. In [11], the inhibition result was “Active; Observed As More Active Than Etoposide”.
Turning to `COc1ccc(-c2ccc3cc(OCCCCCC(=O)NO)ccc3n2)cc1`, the IC50 was 702 nM in assay [1]; 11.9 nM in assay [4]; 1980 nM in [8]; 5760 nM in assay [12]; 1680 nM in assay [13]; greater than 500 nM in [14]. Also, the IC50 in assay [15] turned out to be 879 nM. The result in assay [2], in [5] and in [10] was Active. Also, the inhibition result in assay [3] and in [7] was “Active” each time. In addition, in assay [6], the result was inactive. The Activity result in assay [9] was “Active; Result Signifies That Cell Death Induced Via Mitochondrial-Dependent Pathways”; in assay [16] it was “Active; Exhibited Commendable Decrease In Mass Of 3D Sphere”. Besides, in assay [11], the inhibition entry is reported as “Active; Observed As More Active Than Etoposide”.
